# What was measured:
# Assay type in all cases: functional
# Enterococcus faecium = test: Antibacterial activity against vancomycin-resistant Enterococcus faecium
# [1] = Cytotoxicity against human NCI60 cells
# Staphylococcus aureus = test: Antibacterial activity against methicillin-resistant Staphylococcus aureus
compound,measurement,setting,value
COc1c(Cl)c(C)c(Cl)c(O)c1C(=O)c1c(C=O)c(O)cc(O)c1CC=C(C)C [PESTALONE],MIC,Enterococcus faecium,0.078 µg/mL
same,GI50,[1],6 µM
same,MIC,Staphylococcus aureus,0.037 µg/mL

# From ChEMBL document CHEMBL1156374, “Pestalone, a new antibiotic produced by a marine fungus in response to bacterial challenge” (2001)
